Data: paper PMC9823088, “The oral selective estrogen receptor degrader GDC-0810 (ARN-810) in postmenopausal women with hormone receptor-positive HER2-negative (HR + /HER2 −) advanced/metastatic breast cancer” (Breast Cancer Research and Treatment, 2022)

Assay: Safety: adverse events (NCI-CTCAE v4.0), DLT, MTD, RP2D
Format: in vivo
Description: AEs were assessed using the National Cancer Institute-Common Terminology Criteria for Adverse Events (NCI-CTCAE v4.0). […] The protocol-defined GDC-0810-specific AEs of special interest (AESI) which were non-serious adverse events that required expedited reporting to the sponsor, included DLTs occurring during the DLT assessment window, grade ≥ 2 vomiting/diarrhea, grade ≥ 3 nausea, grade ≥ 2 thromboembolic events, grade ≥ 2 vaginal or uterine hemorrhage, and grade ≥ 3 elevation of ALT or AST.
Analyses of safety, pharmacokinetics, anti-tumor activity, and data from the FES-PET imaging correlative studies were planned. Confirmatory inferential analyses and imputation for missing data were not planned due to the exploratory nature of this study. Descriptive statistics were used to summarize patient data. The number of patients to be enrolled was dependent upon the observed safety and pharmacokinetic profile during dose escalations. The safety- and efficacy-evaluable population included patients who received at least one dose of the study drug. Safety was assessed through summaries of DLTs, AEs, changes in select laboratory test results, vital signs, ECGs, and changes in endometrial thickness. Objective response (with confirmation) and clinical benefit rates (CBR) were derived per RECIST v1.1 and summarized by dose level and cohort. […]
polyps, endometrial cancer, endometrial hyperplasia, and other significant disorders); any […]
disease or chronic diarrhea, short bowel syndrome, or upper gastrointestinal surgery; known human immunodeficiency virus (HIV) infection; known clinically significant history of liver disease; major surgery within 4 weeks prior to enrollment; or radiation therapy within 2 weeks […]
There were phase-specific exclusion criteria as well. In phase Ib, cohort C1 excluded patients with a history of venous thromboembolic event requiring therapeutic anticoagulation or vaginal bleeding within 2 months prior to enrollment. In phase IIa, cohorts A1 and A2 excluded patients with >1 chemotherapy in the advanced/metastatic disease setting. In phase IIa, cohort B1 excluded patients with >1 prior AI in the advanced/metastatic disease setting or prior […]
In phase IIa, cohort B2 excluded patients with >1 prior AI or >1 prior chemotherapy in the advanced/metastatic disease setting.
Patients in phase Ia in dose escalation received oral doses of GDC-0810 during 28-day cycles given once daily (QD) or twice-daily (BID), with fasting and without fasting, and with a single dose given on day −7 leading into cycle 1. The starting dose in the first cohort was 100 mg per day based on preclinical studies. Dose escalation to 200 mg and by 200 mg increments in successive cohorts occurred in the absence of dose-limiting toxicities (DLTs), or conditionally in the presence of DLTs. A DLT was defined as any adverse event (AE) occurring during the DLT window deemed by the investigator or sponsor to be related to the study drug unless they were clearly related to disease progression or other cause; DLT incidences were evaluated from day […]
patients in a dose cohort experienced a DLT, 3 additional patients were assigned to that dose; dose escalation to the next level proceeded if DLTs were experienced by ≤1 patient out of 6. If ≥2 patients experienced DLTs at a given dose, a lower dose was to be declared the maximum […]
Phase Ib was a dose-escalation study of GDC-0810 starting at 400 mg QD, as […]
Phase IIa explored the recommended phase 2 dose (RP2D) from phase Ia. All patients received GDC-0810 600 mg under non-fasting conditions. Cohorts A1 and A2 enrolled patients with tumors harboring ESR1 mutations with no prior fulvestrant use in cohort A1 while prior fulvestrant use was allowed in cohort A2. Cohorts B1 and B2 enrolled patients whose disease had progressed and who may have had one or no AI therapy; there was no prior fulvestrant use in cohort B1 while prior fulvestrant use was allowed in cohort B2.
Patients in all three study phases continued treatment until unacceptable toxicity, disease

[1] = phase IIa B2, 600 mg QD, n = 19
[2] = phase Ia cohorts 1–9, 100–800-mg BID, 300–400-mg QD, n = 41
[3] = phase Ib C1, 400 mg QD + palbociclib, n = 4
[4] = phase Ib D1, ≤ 600 mg QD + LHRH agonist, n = 6
[5] = phase Ib and IIa (n=111), grade 2, cohort B1
[6] = phase Ib and IIa (n=111), grade 2, cohort D1
[7] = phase Ib and IIa (n=111), grade 3, cohort A1
[8] = phase Ib and IIa (n=111), grade 3, cohort B1
[9] = phase Ib and IIa (n=111), grade 5, cohort B1
[10] = phase Ib combination treatments

CC/C(=C(/c1ccc(/C=C/C(=O)O)cc1)c1ccc2[nH]ncc2c1)c1ccc(F)cc1Cl [GDC-0810]
1 n: SAE Urinary tract infection (phase Ib and IIa (n=111), grade 1, cohort A1) | SAE Hepatic hemorrhage (phase Ib and IIa (n=111), grade 2, cohort A1) | SAE Deep vein thrombosis [5] | SAE Pneumonia [5] | SAE Pleural effusion (phase Ib and IIa (n=111), grade 2, cohort C1) | SAE Abdominal pain [6] | SAE Appendicitis perforated [6] | SAE Pain in extremity [6] | SAE Ascites [7] | SAE Hypertension [7] | SAE Cardiac failure [8] | SAE Diarrhea [8] | SAE Dyspnea [8] | SAE Endometrial hyperplasia [8] | SAE Headache [8] | SAE Hip fracture [8] | SAE Hydronephrosis [8] | SAE Seizure [8] | SAE Syncope [8] | SAE Tumor pain [8] | SAE Atrial fibrillation (phase Ib and IIa (n=111), grade 3, cohort C1) | SAE Hyponatremia (phase Ib and IIa (n=111), grade 4, cohort B1) | SAE Acute kidney injury [9]
31,28%: vomiting, most common AEs (phases Ib/IIa)
1 to 176 days: time to onset for any grade diarrhea, range (phase Ia)
600 mg QD: RP2D (recommended phase 2 dose) (taken with food / non-fasted)
32 (78) n (%): Diarrhea, all grades [2]
6 (100) n (%): Diarrhea, all grades [4]
5 (50%) n (%): AEs leading to dose interruption [10]
1 (17) n (%): Arthralgia, all grades [4] | Cough, all grades [4] | Diarrhea, Grades 3–5 [4] | Flatulence, all grades [4]
32 (32%) n (%): AEs leading to dose interruption (phase IIa expansion cohorts)
2 (5) n (%): AST increased, Grades 3–5 [2]
18 (44%) n (%): AEs leading to dose interruption (phase Ia dose escalation)
29 days: mean time to onset for any grade diarrhea (phase Ia dose-escalation cohorts)
1 (25) n (%): AST increased, all grades [3] | Arthralgia, all grades [3] | Cough, all grades [3] | Decreased appetite, all grades [3] | Fatigue, Grades 3–5 [3]
4 (67) n (%): Decreased appetite, all grades [4] | Nausea, all grades [4]
17 (42) n (%): AST increased, all grades [2] | Constipation, all grades [2]
9 (47) n (%): Nausea, all grades [1]
4 (4%) n (%): AEs leading to dose reduction (phase IIa expansion cohorts)
3 (3%) n (%): AEs leading to study drug withdrawal (phase IIa expansion cohorts)
not reached: MTD (maximum tolerated dose) (phase Ia)
7 (37) n (%): Fatigue, all grades [1]
none: AEs leading to dose reduction [10] | AEs leading to study drug withdrawal [10]
2 (33) n (%): Abdominal pain, all grades [4]
3 (7) n (%): Fatigue, Grades 3–5 [2]
18 (44) n (%): Anemia, all grades [2]
3 (7%) n (%): patients with grade ≥3 AEs related to GDC-0810 (phase Ia, grade 4 pulmonary embolism and two grade 3 diarrhea)
28 (68) n (%): Fatigue, all grades [2] | Nausea, all grades [2]
16 (39) n (%): Vomiting, all grades [2]
2 n: SAE Vomiting (phase Ib and IIa (n=111), grade 3, cohort A1 (both)) | SAE Pneumonia (phase Ib and IIa (n=111), grade 3, cohorts A2, B1) | SAE Pulmonary embolism (phase Ib and IIa (n=111), grade 3, cohorts B1, D1) | SAE Sepsis (phase Ib and IIa (n=111), grade 4, cohorts B1, B2) | SAE Breast cancer [9]
12 (29) n (%): Abdominal pain, all grades [2] | Arthralgia, all grades [2]
40 (98%) n (%): patients with ≥ 1 AE considered related to GDC-0810 (phase Ia dose escalation)
3 (75) n (%): Nausea, all grades [3]
3 (50) n (%): Constipation, all grades [4] | Dyspepsia, all grades [4] | Fatigue, all grades [4] | Vomiting, all grades [4]
2 (11) n (%): Decreased appetite, all grades [1] | Dyspepsia, all grades [1] | Vomiting, all grades [1]
11 (27) n (%): Dyspepsia, all grades [2] | Flatulence, all grades [2]
5 (12%) n (%): AEs leading to dose reduction (phase Ia dose escalation)
2 (50) n (%): Anemia, all grades [3] | Diarrhea, all grades [3] | Fatigue, all grades [3]
0 n (%): Constipation, Grades 3–5 [1] | Cough, Grades 3–5 [1] | Decreased appetite, Grades 3–5 [1] | Diarrhea, Grades 3–5 [1] | Dyspepsia, Grades 3–5 [1] | Fatigue, Grades 3–5 [1] | Flatulence, Grades 3–5 [1] | Flatulence, all grades [1] | Nausea, Grades 3–5 [1] | Vomiting, Grades 3–5 [1] | Arthralgia, Grades 3–5 [2] | Constipation, Grades 3–5 [2] | Cough, Grades 3–5 [2] | Decreased appetite, Grades 3–5 [2] | Diarrhea, Grades 3–5 [2] | Dyspepsia, Grades 3–5 [2] | Flatulence, Grades 3–5 [2] | AST increased, Grades 3–5 [3] | Abdominal pain, Grades 3–5 [3] | Abdominal pain, all grades [3] | Anemia, Grades 3–5 [3] | Arthralgia, Grades 3–5 [3] | Constipation, Grades 3–5 [3] | Constipation, all grades [3] | Cough, Grades 3–5 [3] | Decreased appetite, Grades 3–5 [3] | Diarrhea, Grades 3–5 [3] | Dyspepsia, Grades 3–5 [3] | Dyspepsia, all grades [3] | Flatulence, Grades 3–5 [3] | Flatulence, all grades [3] | Nausea, Grades 3–5 [3] | Vomiting, Grades 3–5 [3] | Vomiting, all grades [3] | AST increased, Grades 3–5 [4] | AST increased, all grades [4] | Abdominal pain, Grades 3–5 [4] | Anemia, Grades 3–5 [4] | Anemia, all grades [4] | Arthralgia, Grades 3–5 [4] | Constipation, Grades 3–5 [4] | Cough, Grades 3–5 [4] | Decreased appetite, Grades 3–5 [4] | Dyspepsia, Grades 3–5 [4] | Fatigue, Grades 3–5 [4] | Flatulence, Grades 3–5 [4] | Nausea, Grades 3–5 [4] | Vomiting, Grades 3–5 [4]
11 (58) n (%): Diarrhea, all grades [1]
4 (21) n (%): Constipation, all grades [1] | Cough, all grades [1]
13 (32) n (%): Cough, all grades [2] | Decreased appetite, all grades [2]
one of the 20: SAEs considered related to the study drug (phase Ia, grade 4 pulmonary embolism)
1 (2) n (%): Abdominal pain, Grades 3–5 [2] | Anemia, Grades 3–5 [2] | Nausea, Grades 3–5 [2] | Vomiting, Grades 3–5 [2]
no deaths: deaths (phase Ib)
